The nature of data set [1]: Induction of copper transporting activity in human HeLa cells assessed as fold increase in intracellular copper levels at 2 uM incubated for 4 hrs by ICP-MS analysis. It counts as functional.
The test system of data set [2] is HepG2. The data set is described as follows: Cytotoxicity against human HepG2 cells assessed as cell viability at 0.1 to 5 uM measured at 24 hrs by MTT assay. It counts as functional, cell-based. The following applies: dose 0.1-5 µM.
The test system of data set [3] is Hepatocyte. The data set is described as follows: Cytotoxicity against mouse Hepatocyte assessed as cell viability at 0.1 to 5 uM measured at 24 hrs by MTT assay. Type of data set: toxicity, cell-based. The conditions noted are these: hepatocytes, dose 0.1-5 µM. (Tetrazolium assays rely on reduction of a dye to a coloured formazan, in cell work by metabolically active cells.)

Data set [4] deals with HepG2. The experiment in a line: Cytotoxicity against human HepG2 cells assessed as cell viability at 0.1 to 5 uM compound administrated as copper complex measured at 24 hrs by MTT assay. Type of data set: functional, cell-based. The conditions noted are these: dose 0.1-5 µM.
For data set [5], the system named is Hepatocyte. The data set is described as follows: Cytotoxicity against mouse Hepatocyte assessed as cell viability at 0.1 to 5 uM compound administrated as copper complex measured at 24 hrs by MTT assay. Type of data set: toxicity, cell-based. The following applies: hepatocytes, dose 0.1-5 µM.
Data set [6] deals with HepG2. The data set is described as follows: Anti-NAFLD activity in palmitic acid human HepG2 NAFLD cell model assessed as cell viability at 0.1 to 0.5 uM compound administrated as copper complex measured at 24 hrs by MTT assay. It counts as functional, cell-based. The conditions noted are these: dose 0.1-0.5 µM.
Data set [7] has as its system HepG2. The data set is described as follows: Anti-NAFLD activity in palmitic acid human HepG2 NAFLD cell model assessed as increase in ROS level at 5 uM compound administrated as copper complex measured at 24 hrs by DCFH-DA probe based flow cytometry analysis. Type of data set: functional. For orientation: A flow cytometer gives signals particle by particle.

Structures are written as SMILES. Activity calls are given as the source filed them. The rule behind the calls is not given here.

As to `COc1ccc2oc(-c3ccc4cccc(O)c4n3)c(O)c(=O)c2c1`, the “fold change (FC)” value in data set [1] is approximately 5. The result in data set [2], in data set [4], in data set [6] and in data set [7] was Active. Besides, the Activity entry in data set [3] and in data set [5] was “Non-toxic” each time.
Take `O=c1c(O)c(-c2ccc3c(Cl)ccc(O)c3n2)oc2ccccc12`: the “fold change (FC)” value in data set [1] is approximately 5. Also, the outcome in data set [2], in data set [4], in data set [6] and in data set [7] was Active. In addition, the Activity entry in data set [3] and in data set [5] was “Non-toxic” each time.

For the origin of these results see ChEMBL document CHEMBL6115034, “Pseudonatural Flavonols as Novel Copper Ionophores for NAFLD Intervention via Synergistic Copper Delivery and Flavonoid Activity” (J Med Chem, 2025).
